Measurements from patent US11753377B2, “Crystal form of 2-methyl-2-propanol and amino-substituted aryl compound” (ZHUHAI UNITED LABORATORIES CO., LTD., priority 2020, dated 2023).
Like-named read-outs stand apart in the source and are kept apart here.

How the values were obtained:
CYP3A4 = biological target: T1, CYP3A4 (Homo sapiens, UniProt P08684); experiment: Inhibition of human liver microsomal cytochrome P450 CYP3A4; assay type: in vitro ADME; conditions: pooled human liver microsomes, two probe substrates, NADPH
T1 construct: pooled human liver microsomes were selected as a CYP450 enzyme source; from tissue; host or cells: pooled human liver microsomes
Text: (§1) Experimental objective: To study the inhibitory effect of compounds on human liver microsomal cytochrome P450. Experimental processes: In the study on inhibition of the compounds on the human liver microsomal cytochrome P450 (CYP1A2, CYP2C9, CYP2C19, CYP2D6 and CYP3A4), pooled human liver microsomes were selected as a CYP450 enzyme source.

CYP2C9 = biological target: T2, CYP2C9 (Homo sapiens, UniProt P11712); experiment: Inhibition of human liver microsomal cytochrome P450 CYP2C9; assay type: in vitro ADME; conditions: pooled human liver microsomes, probe substrate, NADPH
T2 construct: pooled human liver microsomes were selected as a CYP450 enzyme source; from tissue; host or cells: pooled human liver microsomes
Text: as §1

[1] = Pharmacokinetics in Beagle dogs, single intravenous injection; assay type: in vivo; conditions: male, dog, plasma, 1 mg/kg single intravenous injection
Protocol: Experimental objective: To study pharmacokinetics of the compound in Beagle dogs
Experimental material: Beagle dogs (male, 8-11 kg, greater than or equal to 6 months, Marshall)
(§2) Pharmacokinetic characteristics of the compound were tested by intravenous injection in rodents according to the standard protocol. In the experiment, the candidate compound was prepared as a clear solution, and was administrating to Beagle dogs at 1 mg/kg by single intravenous injection. A vehicle for intravenous injection was a 10% hydroxypropyl β-cyclodextrin aqueous solution. Whole blood samples were collected at 0.033, 0.083, 0.25, 0.5, 1, 2, 4, 8, 12, and 24 hours, respectively, centrifuged at 3000 r for 10 min, and the supernatant was separated to obtain plasma samples. 20 μL of plasma samples were mixed with 400 μL of acetonitrile solution containing internal standard to precipitate protein, and the mixture was centrifuged, then 2 μL of the supernatant was injected. Plasma concentrations were quantitatively analyzed by LC-MS/MS analysis method, and pharmacokinetic parameters, such as clearance rate, half-life, and area under the concentration-time curve, were calculated.

xerophthalmia in mice = experiment: In vivo efficacy: scopolamine-induced xerophthalmia in mice (tear test, corneal fluorescence staining score); parameters: species or system C57BL/6J mice; conditions: scopolamine model, 0.5% eye drops 3 μL/eye 4 times/day
Text: Subcutaneous injection of scopolamine may induce the xerophthalmia in mice. Decreased tear secretion and inflammatory infiltration can be observed by tear tests and corneal fluorescence staining scores. Furthermore, it is possible to predict whether the model can reach the expected severity at the beginning of the modeling.
Experimental Design: • Twenty animals were selected from 25 female C57BL/6J mice and randomized into 4 groups by body weight via Provantis or Excel, […], and the grouping might also refer to the results of the tear test and the corneal fluorescence staining score of each animal prior to the experiment. • The mice were injected subcutaneously with scopolamine hydrobromide (3±0.5 h) for 4 times daily at 0.1 mL/animal/time on Day 1 to Day 12 of the experiment to establish xerophthalmia models in the mice. • On Day 1 to Day 13 of the experiment, animals were administrated by binocular eye drops for 4 times daily (3±0.5 h) at 3 μL/eye (on Day 13, animals in Group 1 were not administrated). […]
Tear tests and corneal fluorescence staining scores were performed on all experimental animals on Day 7 and Day 12 prior to modeling.
Criteria for corneal fluorescence staining scores: The cornea of an animal was divided into 5 regions, respectively being upper, lower, nasal, temporal and central regions, and each region was 0-3 points, and each region was scored. […]

[2] = Corneal to plasma drug concentration after eye drop administration in rats; assay type: in vivo; conditions: male, rat, topical, SD rats
Protocol: Experimental objective: To study the ratio of corneal to plasma drug concentration after eye drop administration in rats
Experimental material: Male SD rats, 200-300 g, 7-9 weeks old, Shanghai Lingchang
Experimental processes: The candidate compound was prepared as a clear solution, and administrating to SD rats by eye drop administration. The vehicle for eye drops was 10% hydroxypropyl β-cyclodextrin aqueous solution, and the drug concentration in the eye drops was 5 mg/mL. Corneal and whole blood samples were collected at 1 and 4 hours, respectively. Corneal was homogenized using 15 mM phosphate buffer (PBS): MeOH (2:1, v:v) buffer, then the whole blood samples were centrifuged at 3000 r for 10 min, and the supernatant plasma samples were separated. 20 μL of the plasma samples and homogenate samples were respectively mixed with 400 μL of acetonitrile solution containing internal standard to precipitate protein, and the mixture was centrifuged, then 2 μL of the supernatant was injected. The plasma concentrations were quantitatively analyzed by LC-MS/MS analysis method; the drug concentrations in the cornea and plasma were measured respectively according to different time points, and the ratio of corneal/plasma was calculated.

[3] = Pharmacokinetics in cynomolgus monkeys, single intravenous injection; assay type: in vivo; conditions: male, cynomolgus monkey, plasma, 1 mg/kg single intravenous injection
Protocol: Experimental objective: To study pharmacokinetics of the compound in cynomolgus monkeys
Experimental material: Cynomolgus monkeys (male, 2.5-4 kg, greater than or equal to 2 years, Hainan Jingang)
as §2, with “monkeys” for “rodents”, “cynomolgus monkeys” for “Beagle dogs”, “hours,” for “hours, respectively,”

CYP2C19 = biological target: T3, CYP2C19 (Homo sapiens, UniProt P33261); experiment: Inhibition of human liver microsomal cytochrome P450 CYP2C19; assay type: in vitro ADME; conditions: pooled human liver microsomes, probe substrate, NADPH
T3 construct: pooled human liver microsomes were selected as a CYP450 enzyme source; from tissue; host or cells: pooled human liver microsomes
Text: as §1

[4] = In vitro aldehyde capture capacity experiment (complexation with nonanal, HPLC at 254 nm)
Text: Experimental Embodiment 1: In Vitro Aldehyde Capture Capacity Experiment
1. Experiment Objectives and Processes
Objectives: Xerophthalmia is caused by inflammation inside the eyes, wherein the inflammation may produce aldehydes in the body that will accelerate the inflammation symptoms and worsen the xerophthalmia if not eliminated in time. In the experiment, a relatively good compound was selected according to the complexing capacity of the drug and aldehydes in vivo by simulating the in vivo environment.
Processes: Sulfobutyl-B-cyclodextrin (310 mg) was dissolved in a phosphate buffer (1.25 mL) to prepare a solution.
Nonanal (5.0 mg, 32 μmol, 1.0 eq) and triolein (300 mg) were added to a reaction flask at room temperature, after the prepared solution described above was added thereto, linoleic acid (300 mg) was added thereto, and finally a dimethyl sulfoxide (0.15 mL) solution containing the compound (32 μmol, 1.0 eq) of the present disclosure was added thereto; the reaction solution was reacted at 20-23° C.
The reaction solution was reacted under stirring for 10 min, 100 min, 200 min, and 300 min respectively, and sampled for high performance liquid chromatography after the solution was stratified after standing for 2 min.
Sampling method: 25 μL of an upper emulsified layer and 50 μL of a lower aqueous layer were sampled by a pipette, and samples were diluted with 1 mL of methanol.
Therefore, the percentage contents of complexes at 254 nm under high performance liquid chromatography were compared to observe the ability of compounds to capture and complex aldehydes, as shown in FIG. 4 and Table 6:
The HPLC analysis method is detailed in Table 7, which is XBRIGE 2.5 μm, 3.0*100 mm 5-80CD_XBEH_12 min_0.8.lcm
After 300 min of reaction, retention times of 6.689 min, 6.787 min, 6.966 min, and 7.102 min were absorption peaks of products complexed with monomolecular aldehyde; retention times of 8.905 min, 9.010 min, and 9.075 min were absorption peaks of products complexed with bimolecular aldehyde.

CYP1A2 = biological target: T4, CYP1A2 (Homo sapiens, UniProt P05177); experiment: Inhibition of human liver microsomal cytochrome P450 CYP1A2; assay type: in vitro ADME; conditions: pooled human liver microsomes, probe substrate, NADPH
T4 construct: pooled human liver microsomes were selected as a CYP450 enzyme source; from tissue; host or cells: pooled human liver microsomes
T4 sequence (P05177 1-516): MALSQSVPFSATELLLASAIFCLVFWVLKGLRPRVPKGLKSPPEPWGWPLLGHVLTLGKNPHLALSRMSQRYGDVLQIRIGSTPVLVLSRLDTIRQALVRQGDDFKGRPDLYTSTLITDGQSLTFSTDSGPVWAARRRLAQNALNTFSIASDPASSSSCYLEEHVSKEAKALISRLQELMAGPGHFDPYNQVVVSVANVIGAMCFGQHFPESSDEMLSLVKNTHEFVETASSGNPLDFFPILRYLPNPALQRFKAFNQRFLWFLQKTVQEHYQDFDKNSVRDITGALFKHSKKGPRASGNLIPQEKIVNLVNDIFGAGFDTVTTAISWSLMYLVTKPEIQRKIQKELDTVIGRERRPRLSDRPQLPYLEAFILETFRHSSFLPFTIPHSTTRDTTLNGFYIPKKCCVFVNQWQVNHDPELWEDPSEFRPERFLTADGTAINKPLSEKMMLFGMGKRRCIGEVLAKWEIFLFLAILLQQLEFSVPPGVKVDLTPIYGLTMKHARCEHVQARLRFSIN
Text: as §1

CYP2D6 = biological target: T5, CYP2D6 (Homo sapiens, UniProt P10635); experiment: Inhibition of human liver microsomal cytochrome P450 CYP2D6; assay type: in vitro ADME; conditions: pooled human liver microsomes, probe substrate, NADPH
T5 construct: pooled human liver microsomes were selected as a CYP450 enzyme source; from tissue; host or cells: pooled human liver microsomes
Text: as §1

[5] = read-out: Area under the concentration-time curve AUC
[6] = read-out: Half-life T1/2 (converted)

T1 sequence (P08684 whole entry): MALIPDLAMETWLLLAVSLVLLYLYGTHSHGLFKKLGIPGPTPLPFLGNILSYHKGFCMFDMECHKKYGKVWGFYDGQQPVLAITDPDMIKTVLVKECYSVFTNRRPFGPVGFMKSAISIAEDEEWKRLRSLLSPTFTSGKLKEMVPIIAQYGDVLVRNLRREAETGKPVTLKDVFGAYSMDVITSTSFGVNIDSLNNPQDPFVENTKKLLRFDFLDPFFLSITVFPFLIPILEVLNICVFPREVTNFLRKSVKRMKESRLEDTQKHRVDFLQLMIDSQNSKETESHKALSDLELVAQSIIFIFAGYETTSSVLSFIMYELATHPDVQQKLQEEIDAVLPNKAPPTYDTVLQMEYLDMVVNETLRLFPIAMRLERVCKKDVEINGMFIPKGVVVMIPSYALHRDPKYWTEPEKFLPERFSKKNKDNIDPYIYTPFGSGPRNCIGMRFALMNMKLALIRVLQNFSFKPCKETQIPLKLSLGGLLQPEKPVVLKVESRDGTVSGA
T5 sequence (P10635 whole entry): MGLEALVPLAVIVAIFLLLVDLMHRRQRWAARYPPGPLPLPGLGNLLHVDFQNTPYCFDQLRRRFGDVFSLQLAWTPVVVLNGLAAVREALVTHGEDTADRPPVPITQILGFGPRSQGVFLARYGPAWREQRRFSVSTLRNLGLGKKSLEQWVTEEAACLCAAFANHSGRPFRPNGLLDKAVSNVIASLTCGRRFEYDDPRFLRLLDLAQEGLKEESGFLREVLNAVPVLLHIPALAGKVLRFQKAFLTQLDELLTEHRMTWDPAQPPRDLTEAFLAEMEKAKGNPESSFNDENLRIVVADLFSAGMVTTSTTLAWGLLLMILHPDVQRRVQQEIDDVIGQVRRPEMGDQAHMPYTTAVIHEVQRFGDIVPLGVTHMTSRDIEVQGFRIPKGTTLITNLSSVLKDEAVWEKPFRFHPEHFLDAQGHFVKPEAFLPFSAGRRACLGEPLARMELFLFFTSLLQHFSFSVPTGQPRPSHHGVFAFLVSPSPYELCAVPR
T2 sequence (P11712 whole entry): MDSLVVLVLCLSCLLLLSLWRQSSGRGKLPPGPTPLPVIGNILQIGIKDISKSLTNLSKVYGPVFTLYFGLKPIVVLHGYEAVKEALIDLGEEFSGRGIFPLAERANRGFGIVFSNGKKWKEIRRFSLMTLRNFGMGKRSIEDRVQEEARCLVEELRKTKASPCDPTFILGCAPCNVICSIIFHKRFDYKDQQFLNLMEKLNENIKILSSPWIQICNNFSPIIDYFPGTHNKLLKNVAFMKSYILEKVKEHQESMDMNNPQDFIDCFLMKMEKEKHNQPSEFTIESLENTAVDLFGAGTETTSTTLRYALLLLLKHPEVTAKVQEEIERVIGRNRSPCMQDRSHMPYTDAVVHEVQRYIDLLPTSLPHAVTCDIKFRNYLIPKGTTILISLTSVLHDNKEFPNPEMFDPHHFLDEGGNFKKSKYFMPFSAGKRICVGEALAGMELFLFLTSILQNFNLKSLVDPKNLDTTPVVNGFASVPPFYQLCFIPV
T3 sequence (P33261 whole entry): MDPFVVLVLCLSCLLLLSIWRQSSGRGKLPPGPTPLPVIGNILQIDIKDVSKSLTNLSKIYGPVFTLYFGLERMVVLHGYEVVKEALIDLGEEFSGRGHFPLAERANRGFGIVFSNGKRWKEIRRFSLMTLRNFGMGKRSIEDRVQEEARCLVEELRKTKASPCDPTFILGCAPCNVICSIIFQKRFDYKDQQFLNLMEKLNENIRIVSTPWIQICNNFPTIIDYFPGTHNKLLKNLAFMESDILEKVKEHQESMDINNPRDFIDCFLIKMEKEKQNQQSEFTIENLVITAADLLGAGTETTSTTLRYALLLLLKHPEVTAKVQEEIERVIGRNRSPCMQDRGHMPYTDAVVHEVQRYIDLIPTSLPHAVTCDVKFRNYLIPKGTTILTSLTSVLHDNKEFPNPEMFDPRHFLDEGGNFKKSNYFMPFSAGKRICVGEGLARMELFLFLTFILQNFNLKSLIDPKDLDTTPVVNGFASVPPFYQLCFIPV

Compound: CC(C)(O)c1cc(F)c(-c2cnc(C(C)(C)O)c(N)c2)cc1N [Compound represented by formula (I)]
- IC50 (CYP3A4): > 50 µM
- IC50 (CYP2C9): > 50 µM
- AUC [1, 5]: 4.67 µM·h
- clearance ([1]; read-out: Clearance rate): 11.3 mL/min/kg
- half-life [1, 6]: 2.94 h
- Tear secretion (xerophthalmia in mice; FIG. 5): improve
- Corneal inflammation (corneal fluorescence staining) (xerophthalmia in mice; FIG. 6): improve
- concentration at 1 h ([2]; cornea, eye drops 5 mg/mL, 1 h, read-out: Corneal concentration): 2450 nM
- concentration at 4 h ([2]; cornea, eye drops 5 mg/mL, 4 h, read-out: Corneal concentration): 330 nM
- Kp ([2]; cornea/plasma, 5 mg/mL, eye drop administration, read-out: Ratio of cornea/plasma): > 10
- Kp at 1 h ([2]; cornea/plasma, eye drops 5 mg/mL, 1 h, read-out: Corneal concentration/plasma concentration C/P ratio): 11.8
- Kp at 4 h ([2]; cornea/plasma, eye drops 5 mg/mL, 4 h, read-out: Corneal concentration/plasma concentration C/P ratio): 12.4
- concentration at 1 h ([2]; plasma, eye drops 5 mg/mL, 1 h, read-out: Plasma concentration): 172 nM
- concentration at 4 h ([2]; plasma, eye drops 5 mg/mL, 4 h, read-out: Plasma concentration): 24.4 nM
- AUC [3, 5]: 13 µM·h
- clearance ([3]; read-out: Clearance rate): 4.6 mL/min/kg
- half-life [3, 6]: 3.91 h
- IC50 (CYP2C19): > 50 µM
- Ability and speed of complexing aldehydes [4]: very significant
- Percentage content of complexes at 254 nm ([4]; Time 10 min): 6.634%
- Percentage content of complexes at 254 nm ([4]; Time 100 min): 20.013%
- Percentage content of complexes at 254 nm ([4]; Time 200 min): 29.424%
- Percentage content of complexes at 254 nm ([4]; Time 300 min): 36.039%
- Area under the curve AUC ([4]; percentage content of complexes at 254 nm versus time, 10-300 min): 6944 min.conversion
- Slope ([4]; slope of linear equation, percentage content of complexes at 254 nm versus time 10-300 min, nonanal 1.0 eq, 20-23° C.): 0.1002
- IC50 (CYP1A2): > 50 µM
- IC50 (CYP2D6): > 50 µM
